For four compounds, IC50 and AC50 results are on record in patent publication US20240279239A1, “COMPOUNDS AND METHODS FOR MODULATING SPLICING” (REMIX THERAPEUTICS INC., priority 2020, published 2024).

One may read the IC50 as the concentration needed to halve the response being measured. Broadly, the AC50 is the concentration at which the activity in the assay is half-maximal.

SMILES strings stand for the structures. Where two headings read alike, the source gives them in different places. Bounds are passed on as bounds.

What all share (format): cell-based
In one assay the test system is Target C. Nature of the assay: RT-qPCR canonical junction panel assay, Target C. To be noted: gene panel, read-out: Target C IC50 (decrease in CJ mRNA levels). As to the method:
(§1) Example 44: Exemplary splicing assay for monitoring expression levels of splice variants Compounds described herein were used to modulate RNA transcript abundance in cells. The expression of a target mRNA was measured by detecting the formation of an exon-exon junction in the canonical transcript (CJ). A compound mediated exon-inclusion event was detected by observing an increase in formation of a new junction with an alternative exon (AJ). Real-time qPCR assays were used to detect these splicing switches and interrogate the potency of various compounds towards different target genes. A high-throughput real time quantitative PCR (RT-qPCR) assay was developed to measure these two isoforms of the mRNA (CJ and AJ) for an exemplary gene, HTT, together with a control housekeeping gene, GAPDH or GUSB or PPIA, used for normalization. Briefly, the A673 or K562 cell line was treated with various compounds described herein (e.g., compounds of Formula (I)). After treatment, the levels of the HTT mRNA targets were determined from each sample of cell lysate by cDNA synthesis followed by qPCR.
(§2) The A673 cell line was cultured in DMEM with 10% FBS. Cells were diluted with full growth media and plated in a 96-well plate (15,000 cells in 100 µl media per well). The plate was incubated at 37° C. with 5% CO2 for 24 hours to allow cells to adhere. An 11-point 3-fold serial dilution of the compounds was made in DMSO then diluted in media in an intermediate plate. Compounds were transferred from the intermediate plate to the cell plate with the top dose at a final concentration of 10 uM in the well. Final DMSO concentration was kept at or below 0.25%. The cell plate was returned to the incubator at 37° C. with 5% CO2 for an additional 24 hours.
(§3) The K562 cell line was cultured in IMDM with 10% FBS. For K562, cells were diluted with full growth media and plated in either a 96-well plate (50,000 cells in 50 uL media per well) or a 384-well plate (8,000-40,000 cells in 45 uL media per well). An 11-point 3-fold serial dilution of the compounds were made in DMSO then diluted in media in an intermediate plate. Compound was transferred from the intermediate plate to the cell plate with the top dose at a final concentration of 10 uM in the well. Final DMSO concentration was kept at or below 0.25%. Final volume was 100 uL for 96-well plate and 50 uL for 384-well plate. The cell plate was then placed in an incubator at 37° C. with 5% CO2 for 24 hours.
(§4) The cells were then gently washed with 50 uL-100 uL cold PBS before proceeding to addition of lysis buffer. 30 uL-50 uL of room temperature lysis buffer with DNAse I (and optionally RNAsin) was added to each well. Cells were shaken/mixed thoroughly at room temperature for 5-10 minutes for lysis to take place and then 3 uL-5 uL of room temperature stop solution was added and wells were shaken/mixed again. After 2-5 minutes, the cell lysate plate was transferred to ice for RT-qPCR reaction setup. The lysates could also be frozen at ˜80° C. for later use.
(§5) In some cases, a direct lysis buffer was used. An appropriate volume of 3× lysis buffer (10 mM Tris, 150 mM NaCl, 1.5%-2.5% Igepal and 0.1-1 U/uL RNAsin, pH 7.4) was directly added to either K562 or A673 cells in media and mixed by pipetting 3 times. The plates were then incubated at room temperature with shaking/rocking for 20-50 minutes to allow for lysis to take place. After this time, the cell lysate plate was transferred to ice to set up for the RT-qPCR reactions. The lysates could also be frozen at −80° C. for later use.
(§6) To set up 10 uL RT-qPCR reactions, cell lysates were transferred to 384-well qPCR plates containing the master mix according to the table below. The plates were sealed, gently vortexed, and spun down before the run. The volumes were adjusted accordingly in some instances where the reaction was carried in 20 uL. The table below summarizes the components of the RT-qPCR reactions: […]

Another assay relates to SMN2. The assay can be described thus: RT-qPCR canonical junction panel assay, SMN2. To be noted: gene panel, read-out: SMN2 IC50 (decrease in CJ mRNA levels). As to the method:
as §1, §2, §3, §4, §5, §6
For orientation: Real-time PCR tracks product formation cycle by cycle.

For assay [1], the system named is HTT. The assay can be described thus: RT-qPCR splicing assay for HTT mRNA isoforms (canonical junction CJ and alternative junction AJ). To be noted: A673 or K562 cell line, 24 hours treatment. How it is done: as §1, §2, §3, §4, §5, §6
In assay [2] the test system is HTT. Nature of the assay: RT-qPCR canonical junction panel assay, HTT. Particulars: gene panel, read-out: HTT IC50 (decrease in CJ mRNA levels). How it is done: as §1, §2, §3, §4, §5, §6
[3] abbreviates: decrease in CJ mRNA levels, read-out: HTT CJ AC50.
Where [4] appears, read: increase in AJ mRNA, read-out: HTT AJ AC50.

Consider `Cc1cc(-c2cc3ncn(C4CCNCC4)c(=O)c3s2)cc2cn(C)nc12` [Compound 236, 6-(2,7-dimethyl-2H-indazol-5-yl)-3-(piperidin-4-yl)thieno[3,2-d]pyrimidin-4(3H)-one], for which the IC50 is 100 to 1000 nM in the assay on Target C, less than 100 nM in the assay on SMN2 and less than 100 nM with HTT [2]. The results for the AC50 in the assay with HTT [1] (setting [3]) and with HTT [1] (setting [4]) were less than 100 nM and 100 to 1000 nM, respectively.

On to `Cc1cc(-c2cc3ncn(C4CCN(C)CC4)c(=O)c3s2)cc2cn(C)nc12` [Compound 237, 6-(2,7-dimethyl-2H-indazol-5-yl)-3-(1-methylpiperidin-4-yl)thieno[3,2-d]pyrimidin-4(3H)-one], for which the values for the IC50 in the assay on Target C, in the assay on SMN2 and in the assay on HTT [2] were 1000 to 10000 nM, less than 100 nM and 100 to 1000 nM, respectively. The AC50 in the assay with HTT [1] (setting [3]) and with HTT [1] (setting [4]) was 100 to 1000 nM each time.

With `Cc1cn2nc(-c3cc4ncn(C5CCNCC5)c(=O)c4s3)cc(C)c2n1` [Compound 238, 6-(2,8-dimethylimidazo[1,2-b]pyridazin-6-yl)-3-(piperidin-4-yl)thieno[3,2-d]pyrimidin-4(3H)-one], the 50% inhibitory concentration (IC50) with Target C was 1000 to 10000 nM; in the assay on SMN2 it was less than 100 nM; in the assay on HTT [2], 100 to 1000 nM. The AC50 with HTT [1] (setting [3]) and with HTT [1] (setting [4]) was 100 to 1000 nM each time.

Turning to `Cc1cn2nc(-c3cc4ncn(C5CCN(C)CC5)c(=O)c4s3)cc(C)c2n1` [Compound 239, 6-(2,8-dimethylimidazo[1,2-b]pyridazin-6-yl)-3-(1-methylpiperidin-4-yl)thieno[3,2-d]pyrimidin-4(3H)-one], the values for the IC50 in the assay with Target C, with SMN2 and in the assay on HTT [2] were more than 10000 nM, less than 100 nM and 1000 to 10000 nM, respectively. For the same compound, the AC50 in the assay with HTT [1] (setting [3]) and in the assay with HTT [1] (setting [4]) was 1000 to 10000 nM in each case.
